Laboratory results reported in patent US20190070165A1, “N-HYDROXYISOQUINOLINEDIONE INHIBITORS OF HBV REPLICATION” (Saint Louis University, priority 2016, published 2019).
Read-outs that look alike come from different tables or passages of the source.

Assays:
[1] = tested on: HSV-1; assay: HSV-1 replication inhibition assay in Vero cells; assay type: cell-based, herpes simplex virus 1; conditions: read-out: HSV-1 suppression (log10 at 5 μM), class symbol
Experimental: Thirty-seven compounds were counter-screened for efficacy against HSV-1 to evaluate specificity of the inhibitors and to help determine if the efficacy against HBV replication may be due to an unsuspected indirect effect on the cells. Vero cells infected with HSV-1 at an MOI of 0.1 were treated with 5 μM of compound for 24 hours. Inhibition was calculated as log 10 suppression of plaque forming units compared with DMSO vehicle control.
Vero cells were maintained DMEM supplemented with 3% newborn calf serum, 3% bovine growth serum, 2 mM L-glutamine, and P/S. Test compounds were applied to the cells in the presence of 0.05% DMSO. The herpes simplex virus 1 (HSV-1) strain used for screening was a de-identified clinical isolate from the Saint Louis University Hospital passaged once in culture.
Compounds and virus were diluted in phosphate buffered saline (PBS) containing 2% newborn calf serum and 2 mM L-glutamine so that the final concentration of compound was 5 μM. The cells were incubated at 37° C. for 1 hour with the virus containing inoculum, then the inoculum was removed and the wells were washed once in PBS. Compound diluted to 5 μM in supplemented DMEM was added and cells were incubated at 37° C. for an additional 23 hours. The plates were then microscopically inspected for cytopathic effect (CPE) or toxicity and then frozen at −80° C. Virus titers for wells with limited CPE compared to DMSO vehicle-treated controls were then determined by plaque assay on Vero cells. Each experiment was repeated at least once.

[2] = molecular target: T1, human RNaseH1 (Homo sapiens, UniProt O60930); assay: Oligonucleotide-directed RNA cleavage assay, human RNaseH1; assay type: biochemical; conditions: for IC50: Table 1, quantitative values
T1 construct: made in house; host or cells: E. coli
T1 sequence (O60930 1-286): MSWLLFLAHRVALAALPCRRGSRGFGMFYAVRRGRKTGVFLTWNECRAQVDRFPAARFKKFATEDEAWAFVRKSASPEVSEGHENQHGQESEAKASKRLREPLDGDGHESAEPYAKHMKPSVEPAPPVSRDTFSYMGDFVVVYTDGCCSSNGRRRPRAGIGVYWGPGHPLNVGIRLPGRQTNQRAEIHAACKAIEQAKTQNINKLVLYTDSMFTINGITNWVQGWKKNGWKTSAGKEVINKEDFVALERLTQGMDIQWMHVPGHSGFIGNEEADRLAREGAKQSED
From the text: RNaseH expression and purification.
Oligonucleotide-directed RNA cleavage assay.

[3] = molecular target: T2, HBV RNaseH (Hepatitis B virus genotype D subtype ayw, UniProt P03156); conditions: for HBV RNaseH: Table 1, qualitative inhibition in biochemical assay; for Inhibition of HBV RNaseH, Oligonucleotide directed cleavage assay: Table 3, compounds at 100, 60 and 20 μM, compounds 1-91 and 138-140 previously reported (Cai et al., 2014)
T2 sequence (P03156 671-832): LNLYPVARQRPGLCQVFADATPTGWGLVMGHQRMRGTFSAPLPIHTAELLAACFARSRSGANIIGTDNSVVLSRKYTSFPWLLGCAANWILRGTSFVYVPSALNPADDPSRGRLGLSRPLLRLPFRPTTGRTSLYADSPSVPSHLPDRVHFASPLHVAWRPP

[4] = molecular target: T2, HBV RNaseH; assay: Molecular beacon RNaseH assay; conditions: for Inhibition of HBV RNaseH, Molecular Beacon cleavage assay: Table 3, 0 to 500 μM; for inhibition in the molecular beacon assay: 2.1 μg purified HBV RNaseH
[5] = tested on: HBV replication; assay: HBV replication inhibition assay in HepDES19 cells (strand-preferential q-PCR); assay type: cell-based, Hepatitis B virus; conditions: for EC50: Hepatitis B virus
Experimental: HBV replication assay. […] Cells were seeded into 6-well plates and incubated in DMEM/F12, 10% fetal bovine serum (FBS), 1% penicillin/streptomycin (P/S) with 1 μg/mL tetracycline. Tetracycline was withdrawn after 24 hours. The test compound was applied to duplicate wells 48 hours later in medium containing a final DMSO concentration of 1%, and medium containing the compound was refreshed daily for the following two days. Cells were harvested and non-encapsidated nucleic acids were digested with micrococcal nuclease (New England Biolabs). HBV DNA was purified from capsids using QIAamp Cador Pathogen Mini Kit (Qiagen) with proteinase K incubation overnight at 37° C. TaqMan PCR was performed for 40 cycles at an annealing temperature of 60° C.
Thirty-nine HID, HPD, flutimide, and related POH compounds (Structures shown in FIG. 3) were screened for their ability to inhibit HBV replication in HepDES19 cells. […] Inhibition was calculated as the amount of plus-polarity DNA relative to the DMSO treated controls.
Briefly, HepDES19 were seeded in 12-well plates at 2×10^5 cells per well in the absence of tetracycline. Test compound was applied to cells 48 hours after removal of tetracycline. […] HBV DNA was purified from capsids using a QIAamp pathogen minikit with proteinase K digestion extended to overnight at 37° C. TaqMan PCR was performed for 40 cycles with an annealing temperature of 60° C.

[6] = molecular target: T3, HBV polymerase (Hepatitis B virus genotype D subtype ayw, UniProt P03156); assay: Endogenous polymerase reaction (EPR) in isolated HBV capsids; assay type: biochemical; conditions: ddTTP 5.7 μM; for effect on 32P incorporation in EPR: inhibitors at 4× EC50, #138 and #211 at 30 μM
T3 construct: expressed in transfected cells; host or cells: HepDES19 (HepG2 with a stably transfected HBV genotype D genome)
T3 sequence (P03156 whole entry): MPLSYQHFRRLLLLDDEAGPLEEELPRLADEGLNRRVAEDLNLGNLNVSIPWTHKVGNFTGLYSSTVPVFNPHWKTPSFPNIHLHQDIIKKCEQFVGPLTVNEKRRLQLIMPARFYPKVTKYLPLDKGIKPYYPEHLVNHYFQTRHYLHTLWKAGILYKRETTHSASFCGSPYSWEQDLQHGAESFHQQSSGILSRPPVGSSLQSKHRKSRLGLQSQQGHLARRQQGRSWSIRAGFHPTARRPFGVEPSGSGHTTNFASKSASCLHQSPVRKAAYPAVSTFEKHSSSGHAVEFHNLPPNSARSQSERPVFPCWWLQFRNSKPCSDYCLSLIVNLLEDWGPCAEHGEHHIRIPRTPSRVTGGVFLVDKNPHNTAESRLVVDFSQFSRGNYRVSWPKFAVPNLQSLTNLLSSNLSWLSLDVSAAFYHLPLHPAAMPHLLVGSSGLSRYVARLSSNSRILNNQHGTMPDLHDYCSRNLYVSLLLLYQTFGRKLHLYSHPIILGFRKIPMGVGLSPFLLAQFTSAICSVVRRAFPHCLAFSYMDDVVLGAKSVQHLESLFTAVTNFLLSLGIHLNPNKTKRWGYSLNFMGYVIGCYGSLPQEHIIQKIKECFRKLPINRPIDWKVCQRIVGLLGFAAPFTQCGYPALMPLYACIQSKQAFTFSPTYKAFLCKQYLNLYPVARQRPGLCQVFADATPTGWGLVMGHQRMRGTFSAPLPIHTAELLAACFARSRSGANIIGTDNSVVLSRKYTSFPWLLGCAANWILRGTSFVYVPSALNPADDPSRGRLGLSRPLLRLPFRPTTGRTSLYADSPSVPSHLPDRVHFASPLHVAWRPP
From the text: Anti-RNaseH activity is implied from their preferential suppression of the plus-polarity DNA strand (FIG. 4), but strand-preferential inhibition could also result from inhibiting the polymerase also. This is because positive-polarity DNA synthesis can be suppressed both directly by inhibiting the RNaseH enzyme and indirectly by reducing the amount of negative-polarity DNA strand that templates the positive-polarity strand, whereas minus-polarity DNA synthesis can only be suppressed by chain termination. To determine if the efficacy of these compounds was due to inhibition of the HBV polymerase, capsids isolated from HepDES19 cells were tested in the endogenous polymerase reaction (EPR) to measure DNA chain elongation by the HBV polymerase along the HBV nucleic acids within the capsids. Isolated HBV capsids were supplied with dATP, dTTP, dGTP, and [α^32P]dCTP in the presence of inhibitors at 4× their EC50 values; negative control compounds #138 and #211 were tested at 30 μM. 1% DMSO was used as a vehicle control, and ddTTP (5.7 μM) was the positive control polymerase inhibitor. Samples were incubated at 37° C. for 7 hours to permit DNA chain elongation by the encapsidated HBV polymerase. Nucleic acids were purified, resolved on a 0.8% agarose gel and detected by autoradiography. DNAs from HBV capsids treated with the compounds incorporated ^32P similarly to DMSO control (FIG. 5).
HBV cores were harvested from HepDES19 cells grown in the absence of tetracycline for 20 days using polyethylene glycol 8000 precipitation (Guo et al., 2003). Cells were rinsed in PBS and lysed in 1 mL core lysis buffer with 2 μL of protease inhibitor cocktail (Sigma) at room temperature for 10 minutes. Cell lysates were collected and 10 mM CaCl2) was added. The lysate was centrifuged for 5 minutes at 21,000 g, the supernatant was incubated with 150 U of micrococcal nuclease at 37° C. for 60 minutes, and then 27 mM EDTA was added to stop the reaction. 333 μL of 26% PEG8000 was added to precipitate core particles and incubated at 4° C. for 6 hours. The samples were centrifuged at 21,000 g for 20 minutes at 4° C. The supernatant was removed and the pellet was resuspended in 250 μL of 10 mM Tris buffer pH 7.5. Cores were stored at −80° C.
The endogenous polymerase reaction was done using a modified procedure from (Nguyen et al., 2007). […] These nucleic acids were dissolved in tris-EDTA buffer, resolved on a 0.8% agarose gel, transferred to a HyBondN membrane, and detected by autoradiography. Band intensities for each experiment were quantified using Image J and percent inhibition was calculated relative to the DMSO-treated reactions. Statistical significance of variation in band intensities was evaluated using a one-way ANOVA with a Dunnett post hoc analysis, with p=0.05 indicating significance.

[7] = MTT cytotoxicity assay; assay type: cell-based; conditions: human; Table 2, HepDES19 cells
Experimental: MTT cytotoxicity assays. 1.0×10^4 HepDES19 cells per well were seeded in 96-well plates and incubated in DMEM with 10% FBS plus 1% P/S, 1% non-essential amino acids, and 1% glutamine. Compounds were diluted in medium to the indicated concentrations plus 1% DMSO and added to cells 24 hours after plating, with each concentration tested in triplicate. Medium containing the compound was refreshed daily for the next two days. Thiazolyl blue tetrazolium bromide (MTT, Sigma-Aldrich) was added to 0.25 mg/mL, the cultures were incubated for 60 minutes, metabolites were solubilized in acidic isopropanol, and absorbance was read at 570 nm.

[8] = Human alphaherpesvirus 1, 24 h, 5 μM, Vero cells
[9] = HepDES19, read-out: HBV replication inhibition (EC50, μm)
[10] = Table 2, HepDES19 cells, read-out: EC50

SMILES	log reduction at 5 µM [1, 8]	IC50 [2]	HBV RNaseH [3]	Inhibition of HBV RNaseH, Oligonucleotide directed cleavage assay [3]	Inhibition of HBV RNaseH, Molecular Beacon cleavage assay [4]	EC50 [5, 9]	Human RNaseH1 ([2]; Table 1, qualitative inhibition)	EC50 [5, 10]	inhibition in the molecular beacon assay [4]	effect on 32P incorporation in EPR [6]	HBV replication inhibition / activity ([5]; HepDES19 cells)	HBV replication inhibition (qualitative) ([5]; Table 3, qualitative screen at 20 μM)	reduction of DNA elongation in EPR ([6]; 7 hours, 37° C.)	CC50 [7]	inhibition of RNA cleavage by HBV RNaseH ([3]; compounds at 100, 60 and 20 μM)	log reduction at 5 µM ([1]; Human alphaherpesvirus 1, Vero, 24 h)
O=C(Nc1ccccc1)C1C(=O)N(O)C(=O)c2ccccc21 (stereo not drawn) [Compound 84]	< 1	3.7 µM	+/−	− (No inhibition detected at 100 μM)	− (No inhibition detected at 500 μM)	6.5 ± 4.5 µM										
COc1ccc(CNC(=O)C2C(=O)N(O)C(=O)c3ccccc32)cc1 (stereo not drawn) [Compound 90]	< 1			− (No inhibition detected at 100 μM)	− (No inhibition detected at 500 μM)	19 ± 0.9 µM	++ (detectable inhibition at 20 μM)	18 µM								
CC1CC(=O)N(O)C(COc2ccc(Oc3ccc(Cl)cc3)cc2)C1 (stereo not drawn) [Compound 211, Rilopirox, reference compound]	< 1			− (No inhibition detected at 100 μM)	− (No inhibition detected at 500 μM)				had no effect on the rate of substrate degradation	None of the HBV inhibitors or the two negative control compounds (#138 and 211) significantly altered incorporation	inactive	− (No inhibition detected at 20 μM)				
Cc1cn([C@H]2CC[C@@H](COP(=O)(O)OP(=O)(O)OP(=O)(O)O)O2)c(=O)[nH]c1=O [ddTTP]										strongly inhibited			~90%			
CCN(CC)C(=O)C1C(=O)N(O)C(=O)c2ccccc21 (stereo not drawn) [Compound 83]	< 1	3.4 µM	+/−	− (No inhibition detected at 100 μM)	+ (Dose-dependent inhibition at ≤500 μM)	2.3 ± 1.6 µM			inhibited					> 100 µM	negative	
O=C(Nc1ccc(F)cc1)C1C(=O)N(O)C(=O)c2ccccc21 (stereo not drawn) [Compound 91]	< 1	8.7 µM		− (No inhibition detected at 100 μM)	− (No inhibition detected at 500 μM)	4.6 ± 1 µM										
O=C(NCc1ccccc1)C1C(=O)N(O)C(=O)c2ccccc21 (stereo not drawn) [Compound 85]		3.9 µM	+/−	− (No inhibition detected at 100 μM)	− (No inhibition detected at 500 μM)	6.5 ± 1.5 µM		6.5 µM								< 1
